Assays:
[1] = system: maximum electroshock seizure (MES) model; assay: Maximum electroshock seizure (MES) model test; assay type: in vivo, mice; settings: for responders at 50 mg/kg / responders at 100 mg/kg: Mus musculus, po, 1 h, read-out: MES (positive number/tested number) (converted); for responders at 50 mg/kg: 50 mg/kg oral; for anticonvulsant action in maximum electroshock seizure (MES) model test: mice, oral 50 or 100 mg/kg, 1 hour after administration
Source text: In order to evaluate the antiepileptic activity of each drug, maximum electroshock seizure (MES) model, subcutaneously pentetrazol-injected model (scPTZ), and amygdala kindling model in rats were used because they show a good clinical prediction.
Test 1: Test with Maximum Electroshock Seizure (MES) Model
Test 1 evaluates the anticonvulsant action of medicaments. Animal model used herein represents the clinical phenotypes of generalized tonic seizure and secondarily generalized tonic-clonic seizure. Test compounds (50 or 100 mg/kg) were orally administered to Slc: ddY male mice (3 mice in each group, body weight 20-30 g). After an hour of administration, their corneas were electrically stimulated (60 Hz, 25 mA, 0.2 second) to induce tonic convulsion (tonic extensor in their hind limbs). […] To the control mice, 0.5% tragacanth solution or 0.5% methylcellulose solution was administered.

[2] = system: subcutaneously pentetrazol-injected model (scPTZ); assay: Subcutaneously pentetrazol-injected model (scPTZ) test; assay type: in vivo, mice; settings: pentetrazol 85 mg/kg s.c. after 1 hour; for responders at 50 mg/kg / responders at 100 mg/kg: Mus musculus, po, 1 h, read-out: scPTZ (positive number/tested number) (converted); for responders at 50 mg/kg: 50 mg/kg oral; for responders at 50 mg/kg / responders at 100 mg/kg / scPTZ (positive number/tested number): Slc: ddY male mice, 3 per group, observed 30 minutes for clonic convulsion; for responders at 100 mg/kg / scPTZ (positive number/tested number): 100 mg/kg oral; for anticonvulsant action in subcutaneously pentetrazol-injected model (scPTZ) test: mice, oral 50 or 100 mg/kg
Source text: In order to evaluate the antiepileptic activity of each drug, maximum electroshock seizure (MES) model, subcutaneously pentetrazol-injected model (scPTZ), and amygdala kindling model in rats were used because they show a good clinical prediction. […] Test with Subcutaneously Pentetrazol-Injected Model (scPTZ) Similar to Test 1, Test 2 evaluates the anticonvulsant action of medicaments. However, unlike Test 1, animal model used herein represents the clinical phenotypes of generalized absence seizure and myoclonic seizure. Test compounds (50 or 100 mg/kg) were orally administered to Slc: ddY male mice (3 mice in each group, body weight 20-30 g). After an hour, pentetrazol (85 mg/kg) was subcutaneously administered. […] To the control mice, 0.5% tragacanth solution or 0.5% methylcellulose solution was administered.

[3] = Slc: ddY male mice, 3 per group, electrical stimulation 1 hour after administration, inhibition of hind limb extension
[4] = 100 mg/kg oral, Slc: ddY male mice, 3 per group, electrical stimulation 1 hour after administration, inhibition of hind limb extension

| SMILES | responders at 50 mg/kg [1, 3] [%] | responders at 100 mg/kg [1, 4] [%] | anticonvulsant action in maximum electroshock seizure (MES) model test [1] | responders at 50 mg/kg [2] [%] | responders at 100 mg/kg [2] [%] | anticonvulsant action in subcutaneously pentetrazol-injected model (scPTZ) test [2] | scPTZ (positive number/tested number) [2] | MES (positive number/tested number) [1, 4] |
| --- | --- | --- | --- | --- | --- | --- | --- | --- |
| CNC(=O)C(C)c1ccccc1-c1ccccc1 (stereo not shown) [Example 57, 2-(biphenyl-2-yl)-N-methyl propanamide] | 66.7 | 66.7 | anticonvulsant action was observed | 66.7 | 66.7 | anticonvulsant action was observed |  |  |
| CNC(=O)C(C)c1ccccc1-c1ccccc1F (stereo not shown) [Example 58, 2-(2′-fluorobiphenyl-2-yl)-N-methyl propanamide] | 0 | 66.7 |  | 0 | 66.7 |  |  |  |
| COC(C(N)=O)c1ccccc1-c1ccccc1 (stereo not shown) [Example 61, 2-(Biphenyl-2-yl)-2-methoxyacetamide] | 0 | 66.7 |  | 0 | 100 |  |  |  |
| CNC(=O)C(OC)c1ccccc1-c1ccccc1 (stereo not shown) [Example 62, 2-(biphenyl-2-yl)-2-methoxy-N-methylacetamide] | 66.7 | 100 |  |  | 33.3 |  |  |  |
| COC(C(=O)N(C)C)c1ccccc1-c1ccccc1 (stereo not shown) [Example 63, 2-(biphenyl-2-yl)-2-methoxy-N,N-dimethylacetamide] | 0 | 66.7 |  | 33.3 | 66.7 |  |  |  |
| NC(=O)Cc1ccccc1-c1ccc(F)c(Cl)c1 [Example 65] |  | 66.7 |  |  | 33.3 |  |  |  |
| NC(=O)Cc1ccccc1-c1ccc(Cl)c(F)c1 [Example 66] |  | 66.7 |  |  | 33.3 |  |  |  |
| NC(=O)Cc1ccccc1-c1cc(F)cc(F)c1F [Example 67, 2-(2′,3′,5′-trifluorobiphenyl-2-yl)acetamide] | 66.7 | 66.7 | anticonvulsant action was observed | 66.7 | 66.7 | anticonvulsant action was observed |  |  |
| NC(=O)Cc1ccccc1-c1ccc(Cl)cc1F [Example 68, 2-(4′-chloro-2′-fluorobiphenyl-2-yl)acetamide] | 0 | 100 |  | 0 | 66.7 |  |  |  |
| NC(=O)Cc1ccccc1-c1cc(F)c(F)cc1F [Example 69] |  | 33.3 |  |  | 66.7 |  |  |  |
| NC(=O)Cc1ccccc1-c1ccc(OC(F)(F)F)c(F)c1 [Example 70, 2-[3′-fluoro-4′-(trifluoromethoxy)biphenyl-2-yl]acetamide] | 33.3 | 100 |  | 66.7 | 66.7 |  |  |  |
| NC(=O)Cc1ccccc1-c1cc(C(F)(F)F)cc(C(F)(F)F)c1 [Example 72] |  | 66.7 |  |  | 0 |  |  |  |
| NC(=O)Cc1ccccc1-c1cc(F)cc(C(F)(F)F)c1 [Example 73, 2-[3′-fluoro-5′-(trifluoromethyl)biphenyl-2-yl]acetamide] | 33.3 | 100 |  | 0 | 100 |  |  |  |
| NC(=O)Cc1ccccc1-c1ccc(C(F)(F)F)cc1C(F)(F)F [Example 74] |  | 66.7 |  |  | 33.3 |  |  |  |
| NC(=O)Cc1ccccc1-c1ccc(Cl)c(C(F)(F)F)c1 [Example 75, 2-[4′-chloro-3′-(trifluoromethyl)biphenyl-2-yl]acetamide] | 0 | 100 |  | 33.3 | 66.7 |  |  |  |
| NC(=O)Cc1ccccc1-c1ccc(OC(F)(F)F)cc1 [Example 76, 2-[4′-(trifluoromethoxy)biphenyl-2-yl]acetamide] | 0 | 100 |  | 33.3 | 66.7 |  |  |  |
| CS(=O)(=O)c1ccc(-c2ccccc2CC(N)=O)cc1 [Example 77] |  | 0 |  |  |  |  | 2/3 |  |
| NC(=O)Cc1ccccc1-c1cccc(OC(F)(F)F)c1 [Example 79, 2-[3′-(trifluoromethoxy)biphenyl-2-yl]acetamide] | 33.3 | 100 |  | 33.3 | 100 |  |  |  |
| Cc1cc(Cl)cc(-c2ccccc2CC(N)=O)c1F [Example 81] |  | 33.3 |  |  | 0 |  |  |  |

| SMILES | responders at 50 mg/kg [1, 3] [%] | responders at 100 mg/kg [1, 4] [%] | anticonvulsant action in maximum electroshock seizure (MES) model test [1] | responders at 50 mg/kg [2] [%] | responders at 100 mg/kg [2] [%] | anticonvulsant action in subcutaneously pentetrazol-injected model (scPTZ) test [2] | scPTZ (positive number/tested number) [2] | MES (positive number/tested number) [1, 4] |
| --- | --- | --- | --- | --- | --- | --- | --- | --- |
| NC(=O)Cc1ccccc1-c1cc(F)ccc1C(F)(F)F [Example 82] |  | 33.3 |  |  | 100 |  |  |  |
| NC(=O)Cc1ccccc1-c1cc(C(F)(F)F)ccc1F [Example 83, 2-[2′-fluoro-5′-(trifluoromethyl)biphenyl-2-yl]acetamide] | 0 | 66.7 |  | 33.3 | 66.7 |  |  |  |
| NC(=O)Cc1ccccc1-c1ccc(C(F)(F)F)cc1Cl [Example 84, 2-[2′-chloro-4′-(trifluoromethyl)biphenyl-2-yl]acetamide] | 0 | 66.7 |  | 33.3 | 66.7 |  |  |  |
| NC(=O)Cc1ccccc1-c1cccc(Cl)c1F [Example 85] |  | 100 |  |  | 33.3 |  |  |  |
| NC(=O)Cc1ccccc1-c1cc(Cl)ccc1F [Example 87, 2-(5′-chloro-2′-fluorobiphenyl-2-yl)acetamide] | 33.3 | 100 |  | 0 | 66.7 |  |  |  |
| NC(=O)Cc1ccccc1-c1ccc(F)c(F)c1F [Example 89, 2-(2′,3′,4′-trifluorobiphenyl-2-yl)acetamide] | 0 | 100 |  | 33.3 | 66.7 |  |  |  |
| NC(=O)Cc1ccccc1-c1cc(F)c(F)c(F)c1 [Example 90, 2-(3′,4′,5′-trifluorobiphenyl-2-yl)acetamide] | 66.7 | 66.7 | anticonvulsant action was observed | 66.7 | 66.7 | anticonvulsant action was observed |  |  |
| CS(=O)(=O)c1ccc(-c2ccccc2CC(N)=O)cc1 [Example 92] |  |  |  |  |  |  | 1/3 | 0/3 |
| NC(=O)Cc1ccccc1-c1cc(Cl)ccc1Cl [Example 95, 2-(2′,5′-dichlorobiphenyl-2-yl)acetamide] | 33.3 | 66.7 |  | 0 | 100 |  |  |  |
| NC(=O)Cc1ccccc1-c1cc(C(F)(F)F)ccc1Cl [Example 96] |  | 33.3 |  |  | 66.7 |  |  |  |
| CNC(=O)Cc1ccccc1-c1ccc(C(F)(F)F)cc1F [Example 97] | 33.3 | 66.7 |  |  | 33.3 |  |  |  |
| CNC(=O)Cc1ccccc1-c1cccc(C(F)(F)F)c1F [Example 98] | 0 | 66.7 |  |  | 0 |  |  |  |
| CNC(=O)Cc1ccccc1-c1cccc(OC(F)(F)F)c1 [Example 99, N-methyl-2-[3′-(trifluoromethoxy)biphenyl-2-yl]acetamide] | 66.7 | 100 |  |  | 33.3 |  |  |  |
| CNC(=O)Cc1ccccc1-c1cccc(SC)c1 [Example 100] |  | 0 |  |  | 100 |  |  |  |
| CNC(=O)Cc1ccccc1-c1cc(F)ccc1C(F)(F)F [Example 101] |  | 100 |  |  | 0 |  |  |  |
| CNC(=O)Cc1ccccc1-c1cc(F)cc(C(F)(F)F)c1 [Example 102] |  | 0 |  |  | 66.7 |  |  |  |
| CNC(=O)Cc1ccccc1-c1ccc(OC(F)(F)F)cc1 [Example 103] |  | 100 |  |  | 33.3 |  |  |  |
| CNC(=O)Cc1ccccc1-c1ccc(F)cc1C(F)(F)F [Example 104] |  | 100 |  |  | 0 |  |  |  |

From patent US20120142771A1, “BIPHENYLACETAMIDE DERIVATIVE” (Dainippon Sumitomo Pharma Co., Ltd., priority 2008, published 2012)
